Measurements from US20180147134A1, “ANTI-CELL SENESCENCE COSMETIC COMPOSITION, USE OF CASEARIA SYLVESTRIS AND/OR HIMENAEA COURBARIL, METHOD OF PREVENTING CELL SENESCENCE AND A METHOD FOR MODULATING THE EXPRESSION OF B-GALACTOSIDASE, P16, P21 AND/OR IL-8” (Natura Cosméticos S.A., priority 2016, published 2018).

Experiments:
Assay type in all cases: cell-based
transcription factor p16 = assay: in vitro model of induced cell senescence: expression of p16; details: protection of the cells with agent
Excerpt: (§1) An in vitro model of induced early cell aging (cell senescence) was developed and used to evaluate whether certain cosmetic ingredients can protect or delay molecular mechanisms that lead to aging of skin cells or to loss of functional competence (loss of cellular vitality).

[1] = system: cell senescence-associated lysosomal b-galactosidase; assay: in vitro model of induced early cell aging (cell senescence), UVA/UVB: senescence-associated lysosomal b-galactosidase (flow cytometry and cytochemical marking); details: in the presence of agent
Excerpt: as §1

[2] = system: inflammatory cytokine IL-8; assay: in vitro model of induced cell senescence: expression of IL-8; details: UVA + agent
Excerpt: as §1

transcription factor p21 = assay: in vitro model of induced cell senescence: expression of p21; details: protection of the cells with agent
Excerpt: as §1

| SMILES | induced expression of p16 (transcription factor p16) | appearance of b-galactosidase marking induced by UV [1] | expression of IL-8 [2] | induced expression of p21 (transcription factor p21) |
| --- | --- | --- | --- | --- |
| O=C(O)/C=C/c1ccc(O)c(O)c1 [caffeic acid] | reduces | reduced | reduced | – |
| Cc1c(C)c2c(c(C)c1O)CCC(C)(C(=O)O)O2 (stereo not shown) [trolox] | reduces | reduced | reduced | reduces |
